A value given as a limit tells only on which side of the number the result lay.

Data set [1] concerns haemagglutination between sheep erythrocytes and S. saprophyticus bacteria (Mc 2 and Mc 194). Put plainly: Inhibition of haemagglutination of sheep erythrocytes with Staphylococcus saprophyticus. Type of data set: cell-based. To be noted: for minimal effective concentration: Staphylococcus saprophyticus, Erythrocyte, read-out: Minimum inhibitory con.; for Minimum inhibitory con.: Inhibition of haemagglutination, S. saprophyticus Mc 2 and Mc 194, 2 HU bacteria. On the procedure: In the tests the bacteria S. saprophyticus strains, both isolated from urine from patents having urinary tract infection, were used. The bacteria were cultivated in tryptone broth over night, pelletized by means of centrifugation and washed twice with PBS, pH 7.2. Haemagglutination was performed using erythrocytes from sheep obtained from sheep blood and washed twice with 0.85 % saline.
In the haemagglutination-indication experiments microtitre plates (Limbo Sc. Comp. Inc) were used. 25 μl of bacterial suspension were titrated in PBS by two-step titre steps, 25 μl of 1% erythrocyte suspension being then added. The haemagglutination titre was determined after incubation of the plates for 2-4 hours in room temperature.
In the inhibition experiments serial dilutions of the relevant inhibitor (50 μl/well) and 25 μl of bacterial suspension diluted to contain 2 HU haemagglutinating units of bacteria were used. The plates were incubated for 30 minutes at 37° C., 25 μl of the erythrocyte suspension being then added to each well.

Data set [2] deals with NK-cells activity (lymphocytes) against K-562 cells. Put plainly: Inhibition of NK-cells activity (chromium release cytotoxicity of lymphocytes against K-562). Type of data set: cell-based, human. To be noted: for % specific cytotoxicity: ratio 20:1. On the procedure: Lymphocytes isolated from peripheral blood drained from normal donors have the ability of exerting a cytotoxic, (i.e. cell killing activity against certain types of cells in culture. In the instant example there is used a human leukemia cell line called K-562 as a target cell for such cytolytic activity.
Method: K-562 cells intracellularly labelled with radioactive chromium are incubated with effector cells (lymphocytes) for 4 hours at 37° C. The cytotoxic effect is measured as the quantity of isotope released in relation to remaining isotope in the target cells. For details see Malmstrom, P., Jonsson, Å, and Sjogren, H.O. "Countercurrent distribution of lymphocytes from human peripheral blood in an aqueous two-phase system. II. Separation into subsets of lymphocytes with distinctive functions". Cell Immunol. 53:51-64, 1980. For studying inhibiting substances effector cells (6×10^6 cells/ml) are preincubated with the respective oligosaccharides diluted in cultivating medium for half an hour at 37° C. After washing with centrifugation the effector cells are transferred directly to the target cells.

Data set [3] relates to adhesion of S. saprophyticus to urinary epithelial cells. The data set is described as follows: Inhibition of adherence of S. saprophyticus to urinary epithelial cells. It is filed as cell-based, Staphylococcus saprophyticus. The procedure: Cells from urinary epithelium were suspended in cell cultivation medium RPMI 1640 (Flow Ltd) to a concentration of 10^5 cells/ml.
Microorganisms of the type S. saprophyticus were suspended in RPMI 1640 to a concentration of 10^9 bacteria/ml. Oligosaccharides which were tested for their ability of preventing adhesion of S. saprophyticus to urinary epithelial cells were dissolved in RPMI 1640 to a concentration of 5 mg/ml. In the experiments 1 ml of the oligosaccharide solution was incubated with 0.1 ml bacterial suspension at 37° C. for 30 minutes. Urinary epithelial cells were incubated with the bacterial suspension incubated in advance as described above with oligosaccharide solution for 45 minutes at 37° C. As a control there was used a bacterial suspension preincubated with 1 ml RPMI 1640.
Incubated samples were filtrated through a 12μ filter and washed 3 times with PBS. The filter was pressed against microscope slides for a few seconds, the slides being then fixed in methanol for 10 minutes. The slides were dried in air and coloured with acridine orange for 2 minutes. The slides were washed, dried in air and studies in fluorescence microscope. The number of bacteria per cell was counted. In each experiment 50 cells were counted.

The mark [4] stands for this setting: 0.3 mg/ml oligosaccharide, experiment 1 (without inhibitor 22.3).
[5] abbreviates: 0.3 mg/ml oligosaccharide, experiment 2 (without inhibitor 32.0).
The mark [6] stands for this setting: 1 mg/ml oligosaccharide, experiment 1 (without inhibitor 22.3).
[7] abbreviates: 1 mg/ml oligosaccharide, experiment 2 (without inhibitor 32.0).
[8] abbreviates: 3 mg/ml oligosaccharide, experiment 1 (without inhibitor 22.3).
[9] abbreviates: 3 mg/ml oligosaccharide, experiment 2 (without inhibitor 32.0).

Turning to `CC(=O)NC1C(O)CC(OC2C(O)C(CO)OC(OC3C(CO)OC(O)C(O)C3O)C2O)(C(=O)O)OC1C(O)C(O)CO` (stereo not drawn) [3'siallyl-lactose, α-NeuNAcp-(2-3)-β-Galp-(1-4)-Glc, reference compound], the minimal effective concentration in data set [1] was over 2500 µg/mL. The “% specific cytotoxicity” value in data set [2] (setting [4]) amounted to 23.9%; in data set [2] (setting [5]), 28.7%; in data set [2] (setting [6]), 25.2%; in data set [2] (setting [7]), 19.7%; in data set [2] (setting [8]), 20.0%; in data set [2] (setting [9]), 19.1%.

For the molecule `CC(=O)NC1C(O)CC(OCC2OC(OC3C(CO)OC(O)C(O)C3O)C(O)C(O)C2O)(C(=O)O)OC1C(O)C(O)CO` (stereo not drawn) [6'siallyl-lactose, α-NeuNAcp-(2-6)-β-Galp-(1-4)-Glc, reference compound], the minimal effective concentration in data set [1] was over 2500 µg/mL. In addition, the “% specific cytotoxicity” value in data set [2] (setting [4]) is 21.3%; in data set [2] (setting [5]), 20.2%; in data set [2] (setting [6]) it was 15.8%; in data set [2] (setting [7]), 17.2%; in data set [2] (setting [8]), 9.6%; in data set [2] (setting [9]), 15.1%.

As for `CC(=O)N[C@H]1[C@H](O[C@@H]2[C@@H](OC[C@H]3O[C@@H](O[C@H]4[C@H](O)[C@@H](NC(C)=O)C(O)O[C@@H]4CO)[C@@H](O)[C@@H](O[C@H]4O[C@H](CO)[C@@H](O)[C@H](O)[C@@H]4O[C@@H]4O[C@H](CO)[C@@H](O[C@@H]5O[C@H](CO)[C@H](O)[C@H](O)[C@H]5O)[C@H](O)[C@H]4NC(C)=O)[C@@H]3O)O[C@H](CO)[C@@H](O)[C@@H]2O)O[C@H](CO)[C@@H](O[C@@H]2O[C@H](CO)[C@H](O)[C@H](O)[C@H]2O)[C@@H]1O` (stereo partly drawn) [GM1 -octa], in data set [1], the minimal effective concentration was 200 µg/mL. For the same molecule, the “% specific cytotoxicity” value in data set [2] (setting [4]) stood at 16.1%; in data set [2] (setting [5]), 28.0%; in data set [2] (setting [6]) it was 11.3%; in data set [2] (setting [7]), 25.0%; in data set [2] (setting [8]), 1.7%; in data set [2] (setting [9]), 12.8%. Further, in data set [2] (in concentrations down to 0.3 mg/ml), the “cytolytic effect after preincubation with the oligosaccharides” value was “inhibited”.

Take `OC[C@H]1O[C@H](O[C@H]2[C@@H](O)[C@@H](CO)OC(O)[C@@H]2O)[C@H](O)[C@@H](O)[C@H]1O` (stereo partly drawn) [α-Galp-(1-3)-Gal]: in data set [1], the minimal effective concentration was over 2500 µg/mL.

For `OC[C@H]1O[C@H](O[C@@H]2[C@H](O)[C@@H](O)C(O)O[C@@H]2CO)[C@H](O)[C@@H](O)[C@H]1O` (stereo partly drawn) [α-Galp-(1-4)-Gal], the minimal effective concentration in data set [1] is over 2500 µg/mL.

Regarding `OC[C@H]1O[C@H](O[C@@H]2[C@H](O)[C@@H](O)[C@H](O[C@H]3[C@H](O)[C@@H](O)C(O)O[C@@H]3CO)O[C@@H]2CO)[C@H](O)[C@@H](O)[C@H]1O` (stereo partly drawn) [α-Galp-(1-4)-β-Galp-(1-4)-Glc], the minimal effective concentration in data set [1] is over 2500 µg/mL.

For the molecule `CC(=O)N[C@H]1[C@H](O[C@@H]2[C@H](O)[C@@H](O)[C@H](O[C@H]3[C@H](O)[C@@H](O)C(O)O[C@@H]3CO)O[C@@H]2CO)O[C@H](CO)[C@@H](O[C@@H]2O[C@H](CO)[C@H](O)[C@H](O)[C@H]2O)[C@@H]1O` (stereo partly drawn) [β-Gal-(1-4)-β--GNAc-(1-4)-β-Gal-(1-4)-Glc], the “reduction of the number of adhering bacteria” value in data set [3] (oligosaccharide 5 mg/ml, preincubated 30 min at 37° C., then 45 min with cells, vs control without oligosaccharides) was about 96%.

For `CC(=O)N[C@H]1[C@H](O[C@H]2[C@@H](O)[C@@H](CO)O[C@H](O[C@@H]3[C@H](O)[C@@H](O)[C@H](O[C@H]4[C@H](O)[C@@H](O)C(O)O[C@@H]4CO)O[C@@H]3CO)[C@@H]2O)O[C@H](CO)[C@H](O)[C@@H]1O` (stereo partly drawn) [β-GalNAcp-(1-3)-α-Galp-(1-4)-β-Galp-(1-4)-Glc], the minimal effective concentration in data set [1] is over 2500 µg/mL.

On to `OC[C@H]1O[C@@H](O[C@H]2[C@@H](O)[C@@H](CO)OC(O)[C@@H]2O)[C@H](O)[C@@H](O)[C@H]1O` (stereo partly drawn) [β-Galp-(1-3)-Gal], for which, in data set [1], the minimal effective concentration is over 2500 µg/mL.

On to `CC(=O)N[C@H]1[C@H](O[C@H]2[C@@H](O)[C@@H](CO)O[C@@H](O[C@H]3[C@H](O)[C@@H](O)C(O)O[C@@H]3CO)[C@@H]2O)O[C@H](CO)[C@@H](O)[C@@H]1O[C@@H]1O[C@H](CO)[C@H](O)[C@H](O)[C@H]1O` (stereo partly drawn) [β-Galp-(1-3)-β-GNAcp-(1-3)-β-Galp-(1-4)-Glc], for which, in data set [1], the minimal effective concentration is over 2500 µg/mL.

Turning to `OC[C@H]1O[C@@H](O[C@H]2[C@@H](O)[C@@H](CO)O[C@@H](O[C@H]3[C@@H](O)[C@@H](CO)OC(O)[C@@H]3O)[C@@H]2O)[C@H](O)[C@@H](O)[C@H]1O` (stereo partly drawn) [β-Galp-(1-3)-β-Galp-(1-3)-Gal], in data set [1], the minimal effective concentration is over 2500 µg/mL.

For `OC[C@H]1O[C@@H](O[C@H]2[C@H](O)[C@@H](O)C(O)O[C@@H]2CO)[C@H](O)[C@@H](O)[C@H]1O` (stereo partly drawn) [β-Galp-(1-4)-Glc, reference compound], the “reduction of the number of adhering bacteria (in words)” value in data set [3] (oligosaccharide 5 mg/ml, in comparison with the control test without oligosaccharides) was “did not reduce the number of adhering bacteria”. Moreover, the minimal effective concentration in data set [1] is over 2500 µg/mL.

On to `CO[C@@H]1O[C@H](CO)[C@@H](O[C@@H]2O[C@H](CO)[C@H](O)[C@H](O)[C@H]2O)[C@H](O)[C@H]1NC(C)=O` [β-Galp-(1-4)-β-GNAcp-(1-0)-CH3], for which the inhibition at 5000 µg/mL in data set [3] (Staphylococcus saprophyticus, Epithelial cell, 0.75 h, read-out: reduction of the number of adhering bacteria) is about 95%. Moreover, the minimal effective concentration in data set [1] came out at 250 µg/mL.

`CC(=O)N[C@H]1[C@H](O[C@H]2[C@@H](O)[C@@H](CO)O[C@@H](O[C@H]3[C@H](O)[C@@H](O)C(O)O[C@@H]3CO)[C@@H]2O)O[C@H](CO)[C@@H](O[C@@H]2O[C@H](CO)[C@H](O)[C@H](O)[C@H]2O)[C@@H]1O` (stereo partly drawn) [β-Galp-(1-4)-β-GNAcp-(1-3)-β-Galp-(1-4)-Glc]: in data set [1], the minimal effective concentration stood at 250 µg/mL.

As for `OC[C@H]1O[C@@H](OC[C@H]2OC(O)[C@H](O)[C@@H](O)[C@H]2O)[C@H](O)[C@@H](O)[C@H]1O` (stereo partly drawn) [β-Galp-(1-6)-Gal], in data set [1], the minimal effective concentration was over 2500 µg/mL.

Take “Asialotransferrin (human): Asialotransferrin (human)”: the Minimum inhibitory con. in data set [1] stood at 250 µg/mL.

The molecule “Transferrin (human): Transferrin (human)” displayed a Minimum inhibitory con. in data set [1] of over 2500 µg/mL.

B1: Fetuin: Fetuin (protein, UniProt P12763 19-359, looked up)
Alpha-2-HS-glycoprotein: IPLDPVAGYKEPACDDPDTEQAALAAVDYINKHLPRGYKHTLNQIDSVKVWPRRPTGEVYDIEIDTLETTCHVLDPTPLANCSVRQQTQHAVEGDCDIHVLKQDGQFSVLFTKCDSSPDSAEDVRKLCPDCPLLAPLNDSRVVHAVEVALATFNAESNGSYLQLVEISRAQFVPLPVSVSVEFAVAATDCIAKEVVDPTKCNLLAEKQYGFCKGSVIQKALGGEDVRVTCTLFQTQPVIPQPQPDGAEAEAPSAVPDAAGPTPSAAGPPVASVVVGPSVVAVPLPLHRAHYDLRHTFSGVASVESSSGEAFHVGKTPIVGQPSIPGGPVRLCPGRIRYFKI
Turning to B1, the Minimum inhibitory con. in data set [1] was over 2500 µg/mL.

The values above are taken from US4851338A, “Method for diagnosing the presence of bacteria” (Biocarb AB, priority 1982, dated 1989).
